Laboratory results from patent publication US20100298144A1, “HERBICIDAL COMBINATION” (BAYER CROPSCIENCE AG, priority 2008, published 2010).

Test system: Polygonum convolvulus
Experiment: Post-emergence action against weeds, greenhouse pot test, visual scoring
Assay type: in vivo
Conditions: 11 days after application, 0%=no control, 100%=complete control
Description: Seeds or rhizome pieces of monocotyledonous and dicotyledonous weeds were placed in sandy loam in plastic pots, covered with soil and cultivated in a greenhouse under good growth conditions. Three weeks after sowing, the test plants were treated at the 2-4 leaf stage. The compounds according to the invention, formulated as wettable powders or as emulsion concentrates, were sprayed onto the green parts of the plants at various dosages using a water application rate of from 100 to 800 I/ha (converted). After the test plants had been left to stand in the greenhouse for 10 to 28 days under optimum growth conditions, the effect of the preparations was scored visually in comparison to untreated controls.
0%=no control 100%=complete control

glyphosate-ammonium [Compound B1-15]
Polygonum convolvulus Control in % (Table 2, 360 g of ai/ha): 55%

sodium salt of 2-iodo-N-[(4-methoxy-6-methyl-1,3,5-triazin-2-yl)carbamoyl]benzenesulfonamide [Compound A-2]
Polygonum convolvulus Control in % (Table 1, 2.5 g of ai/ha): 10%
Polygonum convolvulus Control in % (Table 2, 2.5 g of ai/ha): 20%

CP(=O)(O)CCC(N)C(=O)O (stereo not shown) [Compound B1-8, glufosinate-ammonium]
Polygonum convolvulus Control in % (Table 1, 150 g of ai/ha): 20%
